Data on ten compounds can be found in US20260062412A1, “NITROGEN-CONTAINING HETEROCYCLIC COMPOUND HAVING MYT1 INHIBITORY ACTIVITY” (CHUGAI SEIYAKU KABUSHIKI KAISHA, priority 2023, published 2026).

The term IC50 denotes the concentration that gives 50% inhibition. A lower IC50 goes with inhibition by little substance.

Experiment [1] concerns the target T1, MYT1 protein (Homo sapiens (Human), UniProt Q99640). As to the kind of experiment: Test for binding to ATP binding site of MYT1 (Kinase Tracer 178 / Eu-Anti-GST antibody TR-FRET). Conditions: ATP binding site of MYT1, 30 minutes at room temperature. On the technique in general: In TR-FRET formats the signal depends on donor and acceptor labels being close together.

Experiment [2] concerns the target T1, MYT1 protein. As to the kind of experiment: MYT1 kinase activity inhibition test (ELISA, phosphorylation of Y15 of CDK1). Conditions: phosphorylation level of Y15 of CDK1 protein caused by MYT1 protein, 60 minutes. Format: biochemical. On the procedure:
The MYT1 kinase activity inhibitory capacity of each compound was evaluated by evaluating the phosphorylation level of Y15 of CDK1 protein caused by MYT1 protein, by ELISA. The kit of CycLex Weel Kinase Assay/Inhibitor Screening Kit Ver. 3 (manufactured by MBL, CY-1172V3) was used. Using Kinase Buffer, 10 μL of 5 nM MYT1 protein (manufactured by Carna Biosciences, Inc.) was prepared. In addition, 30 μL of 83.3 μM of ATP was prepared using Kinase Buffer. In addition, 10 μL of each compound was diluted to each concentration using Kinase Buffer. 30 μL of ATP was added to the plate of the kit, and thereafter, 10 μL of each compound was added thereto. Further, 10 μL of the diluted MYT1 protein solution was added thereto, and then the mixture was mixed, which was allowed to stand at room temperature for 60 minutes. The reaction solution was removed from each well, and each well was washed using Wash Buffer. After Wash Buffer was removed, 100 μL of HRP conjugated Anti-phospho-tyrosine antibody was added to each well, which was allowed to stand at room temperature for 60 minutes. Thereafter, the reaction solution was removed from each well, and each well was washed using Wash Buffer. After Wash Buffer was removed, 100 μL of Substrate Reagent was added to each well, which was allowed to stand at room temperature for 8 minutes. Thereafter, 100 μL of Stop Solution (1 N sulfuric acid) was added to each well according to the manual. Absorbances at 450 nm and 590 nm were measured using Envision (manufactured by PerkinElmer). The phosphorylation level of CDK1 protein was evaluated for each well by subtracting the absorbance at 590 nm from the absorbance at 450 nm. The inhibition rate of each compound added at each concentration was calculated by setting the signal when the compound was not added as 100% and the signal when MYT1 protein was not added as 0%, and the calculation results of IC50 were shown in Table 4.

Experiment [3] has as its system LU65. The experiment can be described thus: Cytotoxicity test with pemetrexed upon addition of each example compound (CellTiter-Glo). Type of experiment: cell-based, human. Conditions: combination with pemetrexed, LU65 cells, 7 days; maximum value, at the MYT1 inhibitor and pemetrexed concentrations. The essentials:
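LU65 lung cancer cells (RB1 S82* truncation, reduced RB1 function) in RPMI-1640/10% FBS were treated with pemetrexed plus each compound over concentration series, 7 days at 37 °C. ATP measured by CellTiter-Glo luminescence; survival relative to DMSO after blank subtraction, cytotoxicity = 100% minus survival.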
(In general: ATP-based viability assays read luminescence as a measure of living cells.)

T1 sequence (Q99640 whole entry): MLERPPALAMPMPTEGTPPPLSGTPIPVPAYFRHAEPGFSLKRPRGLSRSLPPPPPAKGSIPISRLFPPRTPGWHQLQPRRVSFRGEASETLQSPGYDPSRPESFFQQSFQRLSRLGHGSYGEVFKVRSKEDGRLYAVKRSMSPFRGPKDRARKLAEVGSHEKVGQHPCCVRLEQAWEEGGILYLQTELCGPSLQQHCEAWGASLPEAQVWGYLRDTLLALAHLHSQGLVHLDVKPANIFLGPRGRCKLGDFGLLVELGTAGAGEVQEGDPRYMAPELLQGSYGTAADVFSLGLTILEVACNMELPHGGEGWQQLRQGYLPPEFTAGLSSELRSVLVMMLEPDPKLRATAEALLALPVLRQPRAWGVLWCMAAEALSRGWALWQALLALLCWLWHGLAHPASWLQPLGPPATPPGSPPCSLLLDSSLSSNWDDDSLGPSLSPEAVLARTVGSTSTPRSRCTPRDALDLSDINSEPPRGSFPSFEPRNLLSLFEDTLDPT

For the compound `COc1cc2c(-c3ccc(F)c4[nH]ncc34)c(N)c(=O)[nH]c2c2cccnc12` [Compound C4, 3-Amino-4-(7-fluoro-1H-indazol-4-yl)-6-methoxy-1H-1,7-phenanthrolin-2-one], the IC50 in experiment [1] was 1.3 nM; in experiment [2] it was 0.15 nM. The “Bliss Score (Max)” value in experiment [3] was 61%. For the same compound, the “HSA Score (MAX)” value in experiment [3] is given as 62%.
`Nc1c(-c2ccc(F)c3[nH]ncc23)c2ccc3ccccc3c2[nH]c1=O` [Compound B32, 3-Amino-4-(7-fluoro-1H-indazol-4-yl)-1H-benzo[h]quinolin-2-one] showed an IC50 in experiment [1] of 3 nM. The IC50 in experiment [2] was 0.26 nM. Further, in experiment [3], the “Bliss Score (Max)” value was determined as 52% and the “HSA Score (MAX)” value was 63%.
The like results for `Nc1c(-c2ccc(Cl)c3[nH]ncc23)c2cc(Cl)ccc2[nH]c1=O` [Compound A59, 3-Amino-6-chloro-4-(7-chloro-1H-indazol-4-yl)-1H-quinolin-2-one] were, in that order, 5.8 nM, 0.6 nM, 55% and 58%.
As for `COc1cc2c(-c3cc(F)c(F)c4[nH]ncc34)c(N)c(=O)[nH]c2c2cccnc12` [Compound C65, 3-Amino-4-(6,7-difluoro-1H-indazol-4-yl)-6-methoxy-1H-1,7-phenanthrolin-2-one], the IC50 was 3.2 nM in experiment [1] and 0.083 nM in experiment [2]. Besides, in experiment [3], the “Bliss Score (Max)” value was found to be 53%. In addition, the “HSA Score (MAX)” value in experiment [3] worked out at 58%.
The like results for `Nc1c(-c2cc(F)c(Cl)c3[nH]ncc23)c2cc(C3CC3)c3ncccc3c2[nH]c1=O` [Compound C195, 3-Amino-4-(7-chloro-6-fluoro-1H-indazol-4-yl)-6-cyclopropyl-1H-1,7-phenanthrolin-2-one] were, in that order, 2.3 nM, 0.24 nM, 52% and 65%.
On to `Nc1c(-c2c(F)ccc3[nH]ncc23)c2cc(C3CC3)c3ncccc3c2[nH]c1=O` (racemic) [Compound C156, 3-Amino-6-cyclopropyl-4-(5-fluoro-1H-indazol-4-yl)-1H-1,7-phenanthrolin-2-one], for which the results for the IC50 in experiment [1] and in experiment [2] were 2.1 nM and 6.2 nM, respectively. In addition, in experiment [3], the “Bliss Score (Max)” value is 51%. The “HSA Score (MAX)” value in experiment [3] is recorded as 59%.
In experiment [1], `Nc1c(-c2ccc(F)c3[nH]ncc23)c2cc(O[C@H]3C[C@H](F)C3)c3nccnc3c2[nH]c1=O` [Compound G16, 8-Amino-5-((1,3r)-3-fluorocyclobutyl)oxy-7-(7-fluoro-1H-indazol-4-yl)-10H-pyrido[2,3-f]quinoxalin-9-one] showed an IC50 of 0.91 nM. In experiment [2], this compound returned an IC50 of 0.086 nM. In addition, in experiment [3], the “Bliss Score (Max)” value is 50% and the “HSA Score (MAX)” value is given as 58%.
With `Nc1c(-c2ccc(F)c3[nH]ncc23)c2cc([C@H]3CC[C@@H](O)CC3)c3ncccc3c2[nH]c1=O` [Compound C141, 3-Amino-4-(7-fluoro-1H-indazol-4-yl)-6-((1s, 4s)-4-hydroxycyclohexyl)-1H-1,7-phenanthrolin-2-one], the IC50 in experiment [1] amounted to 4.9 nM. In experiment [2], this compound gave an IC50 of 11 nM. In addition, in experiment [3], the “Bliss Score (Max)” value is on record as 78% and the “HSA Score (MAX)” value amounted to 72%.
On the same counts, the results for `Nc1c(-c2ccc(F)c3[nH]ncc23)c2cc(/C=C/CCO)c3ncccc3c2[nH]c1=O` [Compound C100, 3-Amino-4-(7-fluoro-1H-indazol-4-yl)-6-[(E)-4-hydroxybut-1-enyl]-1H-1,7-phenanthrolin-2-one] are 1.5 nM, 5.5 nM, 46% and 50%.
`CCOc1cc2c(-c3cc(F)c(F)c4[nH]ncc34)c(N)c(=O)[nH]c2c2cccnc12` [Compound C67, 3-Amino-4-(6,7-difluoro-1H-indazol-4-yl)-6-ethoxy-1H-1,7-phenanthrolin-2-one] came in with an IC50 in experiment [1] of 2.4 nM. For the same compound, the 50% inhibitory concentration (IC50) in experiment [2] is 0.1 nM. In experiment [3], the “Bliss Score (Max)” value came to 77% and the “HSA Score (MAX)” value was 79%.
